Source: patent publication US20030144345A1, “Treatment of metabolic diseases with soraphen derivatives” (priority 2001, published 2003)

Tests used:
Wistar rats [1] = test: In vivo oxidation of [U-14C]palmitate (exhaled 14CO2); design: species or system rat; conditions: 30 mg/kg s.c.
Experimental: Compound (Ia) was tested in normal Wistar rats by two different methods to assess in vivo a) direct effects on fatty acid oxidation by following the conversion of [^14C]-labeled palmitate to ^14CO2 exhaled by the animals and b) effects on total lipid utilization as determined by indirect calorimetry.
a) In vivo oxidation of [U-^14C]palmitate. Male Wistar rats (240-360 g) were given chow food ad libitum. The day before the experiment each animal was singly caged and food was withdrawn 2.5 hours before the experiment. The animals were given [U-^14C]palmitate (5 μCi) dissolved in 500 μl of olive oil by gavage and compound (Ia) (30 mg/kg) or saline (vehicle) by subcutaneous injection. Immediately after receiving [U-^14C]palmitate and compound (Ia) or vehicle, the animals were kept singly in a metabolic chamber during six hours. The chamber was set up to allow quantive recovery of ^14CO2 exhaled by the animals. The chamber consisted of a desiccator with an elevated platform for the rat, an inlet for air at the bottom wall of the vessel. The flow of the air-exchange was controlled by a flow meter connected to a vacuum pump and set to 50 litres/hour. The temperature inside the chamber was kept at 22° C. Exhaled ^14CO2 from the animals was absorbed by a flask containing 500 ml of Carbosorb E (Canberra Packard).

differentiated L6 cells = test: Fatty acid (palmitate) oxidation assay with differentiated rat L6 muscle cells;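 also: differentiated rat L6 myotubes fed [14C]-palmitate, with oxidation read as 14CO2 trapped on filters and counted by liquid scintillation after 3 to 8 h at 37 °C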
Experimental: Labeling medium to assay oxidation of fatty acids was composed of glucose-deficient DMEM containing 3.7 g/l NaHCO3, 25 mM HEPES-NaOH, 0.5% fatty acid-free bovine serum albumin (BSA), 0.1% ethanol, 0.5% DMSO (or test compounds dissolved in DMSO), 5 mM D-glucose, and 16 μM unlabeled palmitate plus 0.25 μM [U-^14C]palmitate (approx. 800 mCi/mmol). After the addition of labeling medium, the cell culture plates were sealed air tight with self adhesive Super Sealing Film (Life Systems Design, #02-2796-3001). Before sealing, twelve 1 cm^2 squares of filter paper (Schleicher & Schuell, #GB004) pretreated with 50 μl of highly basic tissue solubilizer solution NCSII (Amersham Pharmacia, #NNCS-502) were attached to the lower side of the sealing film. Upon sealing of the tissue culture plates, the filters were positioned in the center above each well, and served to capture the evolving ^14CO2 that was produced by the cells in each individual well. After an incubation between 3 to 8 hours at 37° C., the filters were removed from the sealing film and the captured ^14CO2 was quantitated by liquid scintillation counting with 2 ml of scintillation cocktail BCS-NA (Amersham Pharmacia, #NBCS204) in a Tri-Carb liquid scintillation counter (Canberra Packard).
Cultivation of the differentiating rat muscle cell line L6 for fatty acid oxidation assays was performed as follows. For routine passaging, L6 cells (ATCC) were grown in T75 flasks in 15 ml of MEM Alpha medium (Gibco BRL Life Technologies, #22571-038), containing 10% heat inactivated FBS and 1% antibiotic/antimycotic solution (Gibco BRL Life Technologies, #15240-062). Incubation was done at 37° C. in a humid atmosphere containing 5% CO2. The cells were passaged twice per week by trypsinization.
For fatty acid oxidation assays, each well of a 12-well tissue culture plate was seeded with 2 to 5×10^4 cells in 1 ml of MEM Alpha, 10% FBS, 1% antibiotic/antimycotic solution. After 3 days, medium was exchanged by 1 ml of the same, fresh medium. After 5 days, medium was exchanged again, this time by 1 ml of medium containing 2% FBS, 1% antibiotic/antimycotic solution. After 7 days, the cells were fully differentiated and formed large multinucleated myotubes. At this stage, the medium was replaced by 1 ml of glucose-deficient DMEM supplemented with 3.7 g/l NaHCO3 and 25 mM HEPES-NaOH followed by a starvation period of 2 to 6 hours at 37° C. […] The compounds were tested at three different concentrations (2, 0.2 and 0.02 μM) on differentiated L6 cells.

HepG2 cells = test: Fatty acid (palmitate) oxidation assay with human liver hepatoma cells HepG2; type: cell-based; conditions: HepG2, 10 μM
Experimental: For routine passaging, HepG2 cells (American Type Culture Collection, ATCC) were grown in T75 flasks (Falcon, #353136) in 15 ml of Dulbecco's modified Eagle medium (DMEM, Sigma, #D5796), containing 10% heat inactivated fetal bovine serum (FBS, Summit Biotechnology, #S-100-05) and 1% Penicillin/Streptomycin (Sigma, #P4333). […] The cells were passaged once per week by trypsinization and an additional change of medium was done after 3 to 4 days after passaging.

Wistar rats [2] = test: Lipid utilization by indirect calorimetry; type: in vivo, rat
Description: b) Indirect calorimetry. Substrate utilization can be measured indirectly from respiratory gas exchanges. The method is based on the measurement of oxygen (O2) consumption and carbon-dioxide (CO2) release, both originating from the oxidation of the energetic substrates that progressively release the chemical energy stored in the carbon-hydrogen bonds of carbohydrates, lipids (and proteins). The amounts of carbohydrate and lipid being oxidized in the body at any given time can be calculated from the volumes of 02 consumption and CO2 exhalation by laboratory animals (and humans) in metabolic chambers. For a review of the methodology and the theoretical basis of indirect calorimetry, see Ferrannini, Metabolism, 37, 287-301, 1988.
An established, commercially available metabolic chamber apparatus (Oxymax, columbus Instruments, Ohio) was used to determine the gas exchange of vehicle-treated and compound (Ia)-treated Wistar rats in order to make precise and noninvasive measurements of the changes in the nature of the energetic substrate being oxidized by Wistar rats. Table 5 summarizes the data of the calculated lipid utilization determined for animals treated with two doses of compound (Ia), 10 and 30 mg/kg, administered subcutaneously 30 min. before starting the gas exchange measurements.

[3] = L6, repeated test Table 3, 0.002 μM
[4] = L6, repeated test Table 3, 0.02 μM
[5] = L6, repeated test Table 3, 0.2 μM

Structure (SMILES): CO[C@H]1CCCC[C@@H](c2ccccc2)OC(=O)[C@@H](C)C2(O)O[C@H]([C@@H](C)[C@H](O)[C@H]2OC)[C@@H](C)/C=C/[C@H]1OC [Cpd (Ia), Soraphen A 1-α]
- Duration of effect (entire assessment period) (Wistar rats [1]): 6 h
- Time after administration at which the effect is apparent (Wistar rats [1]): approx. 60 min
- % increase over vehicle (Wistar rats [1]; 5 min): −15%
- Accumulated 14CO2 exhaled (Wistar rats [1]; 5 min): 133 +/− 41 cpm
- % increase over vehicle (Wistar rats [1]; 15 min): −30%
- Accumulated 14CO2 exhaled (Wistar rats [1]; 15 min): 121 +/− 36 cpm
- % increase over vehicle (Wistar rats [1]; 30 min): 17%
- Accumulated 14CO2 exhaled (Wistar rats [1]; 30 min): 211 +/− 32 cpm
- % increase over vehicle (Wistar rats [1]; 60 min): 41%
- Accumulated 14CO2 exhaled (Wistar rats [1]; 60 min): 544 +/− 102 cpm
- % increase over vehicle (Wistar rats [1]; 90 min): 40%
- Accumulated 14CO2 exhaled (Wistar rats [1]; 90 min): 1440 +/− 90 cpm
- % increase over vehicle (Wistar rats [1]; 120 min): 56%
- Accumulated 14CO2 exhaled (Wistar rats [1]; 120 min): 2614 +/− 136 cpm
- % increase over vehicle (Wistar rats [1]; 150 min): 62%
- Accumulated 14CO2 exhaled (Wistar rats [1]; 150 min): 4333 +/− 235 cpm
- % increase over vehicle (Wistar rats [1]; 180 min): 51%
- Accumulated 14CO2 exhaled (Wistar rats [1]; 180 min): 5729 +/− 397 cpm
- % increase over vehicle (Wistar rats [1]; 240 min): 56%
- Accumulated 14CO2 exhaled (Wistar rats [1]; 240 min): 9572 +/− 809 cpm
- % increase over vehicle (Wistar rats [1]; 300 min): 77%
- Accumulated 14CO2 exhaled (Wistar rats [1]; 300 min): 13261 +/− 1.445 cpm
- % increase over vehicle (Wistar rats [1]; 360 min): 60%
- Accumulated 14CO2 exhaled (Wistar rats [1]; 360 min): 16134 +/− 2.130 cpm
- Fold stimulation (differentiated L6 cells; L6, Table 2, 0.02 μM): 1.8 fold
- Palmitate oxidation rate (differentiated L6 cells; L6, Table 2, 0.02 μM): 16.4 +/− 1.0 pmol · h^−1 · well^−1
- Fold stimulation (differentiated L6 cells; L6, Table 2, 0.2 μM): 1.8 fold
- Palmitate oxidation rate (differentiated L6 cells; L6, Table 2, 0.2 μM): 15.8 +/− 0.5 pmol · h^−1 · well^−1
- Fold stimulation (differentiated L6 cells; L6, Table 2, 2 μM): 1.7 fold
- Palmitate oxidation rate (differentiated L6 cells; L6, Table 2, 2 μM): 14.9 +/− 0.4 pmol · h^−1 · well^−1
- Fold stimulation (differentiated L6 cells; [3]): 1.5 fold
- Palmitate oxidation rate (differentiated L6 cells; [3]): 8.3 +/− 0.0 pmol · h^−1 · well^−1
- Fold stimulation (differentiated L6 cells; [4]): 2.2 fold
- Palmitate oxidation rate (differentiated L6 cells; [4]): 12.1 +/− 1.0 pmol · h^−1 · well^−1
- Fold stimulation (differentiated L6 cells; [5]): 2.7 fold
- Palmitate oxidation rate (differentiated L6 cells; [5]): 14.6 +/− 0.1 pmol · h^−1 · well^−1
- EC50 (differentiated L6 cells; Rattus norvegicus, L6, read-out: EC50 for stimulation of palmitate oxidation): 2 to 20 nM
- Fold stimulation over palmitate oxidation rate in the absence of test compounds (HepG2 cells): 3.5 fold
- Palmitate oxidation rate (HepG2 cells): 13.7 +/− 0.7 pmol · h^−1 · well^−1
- % increase over vehicle (Wistar rats [2]; 10 mg/kg s.c., 33.5 min): 12.6%
- Accumulated lipid utilization (Wistar rats [2]; 10 mg/kg s.c., 33.5 min): 0.24 g/kg body weight
- % increase over vehicle (Wistar rats [2]; 10 mg/kg s.c., 67 min): 9.6%
- Accumulated lipid utilization (Wistar rats [2]; 10 mg/kg s.c., 67 min): 0.49 g/kg body weight
- % increase over vehicle (Wistar rats [2]; 10 mg/kg s.c., 100.5 min): 9.8%
- Accumulated lipid utilization (Wistar rats [2]; 10 mg/kg s.c., 100.5 min): 0.76 g/kg body weight
- % increase over vehicle (Wistar rats [2]; 10 mg/kg s.c., 134 min): 9.8%
- Accumulated lipid utilization (Wistar rats [2]; 10 mg/kg s.c., 134 min): 1.03 g/kg body weight
- % increase over vehicle (Wistar rats [2]; 10 mg/kg s.c., 167.5 min): 9.2%
- Accumulated lipid utilization (Wistar rats [2]; 10 mg/kg s.c., 167.5 min): 1.31 g/kg body weight
- % increase over vehicle (Wistar rats [2]; 10 mg/kg s.c., 201 min): 8.4%
- Accumulated lipid utilization (Wistar rats [2]; 10 mg/kg s.c., 201 min): 1.61 g/kg body weight
- % increase over vehicle (Wistar rats [2]; 10 mg/kg s.c., 234.5 min): 7.8%
- Accumulated lipid utilization (Wistar rats [2]; 10 mg/kg s.c., 234.5 min): 1.89 g/kg body weight
- % increase over vehicle (Wistar rats [2]; 10 mg/kg s.c., 268 min): 7.9%
- Accumulated lipid utilization (Wistar rats [2]; 10 mg/kg s.c., 268 min): 2.17 g/kg body weight
- % increase over vehicle (Wistar rats [2]; 10 mg/kg s.c., 301.5 min): 7.7%
- Accumulated lipid utilization (Wistar rats [2]; 10 mg/kg s.c., 301.5 min): 2.44 g/kg body weight
- % increase over vehicle (Wistar rats [2]; 10 mg/kg s.c., 335 min): 7.2%
- Accumulated lipid utilization (Wistar rats [2]; 10 mg/kg s.c., 335 min): 2.73 g/kg body weight
- % increase over vehicle (Wistar rats [2]; 10 mg/kg s.c., 368.5 min): 6.3%
- Accumulated lipid utilization (Wistar rats [2]; 10 mg/kg s.c., 368.5 min): 3.03 g/kg body weight
- % increase over vehicle (Wistar rats [2]; 30 mg/kg s.c., 33.5 min): 28.4%
- Accumulated lipid utilization (Wistar rats [2]; 30 mg/kg s.c., 33.5 min): 0.27 g/kg body weight
- % increase over vehicle (Wistar rats [2]; 30 mg/kg s.c., 67 min): 19.2%
- Accumulated lipid utilization (Wistar rats [2]; 30 mg/kg s.c., 67 min): 0.54 g/kg body weight
- % increase over vehicle (Wistar rats [2]; 30 mg/kg s.c., 100.5 min): 14.5%
- Accumulated lipid utilization (Wistar rats [2]; 30 mg/kg s.c., 100.5 min): 0.79 g/kg body weight
- % increase over vehicle (Wistar rats [2]; 30 mg/kg s.c., 134 min): 13.2%
- Accumulated lipid utilization (Wistar rats [2]; 30 mg/kg s.c., 134 min): 1.06 g/kg body weight
- % increase over vehicle (Wistar rats [2]; 30 mg/kg s.c., 167.5 min): 12.5%
- Accumulated lipid utilization (Wistar rats [2]; 30 mg/kg s.c., 167.5 min): 1.35 g/kg body weight
- % increase over vehicle (Wistar rats [2]; 30 mg/kg s.c., 201 min): 11.8%
- Accumulated lipid utilization (Wistar rats [2]; 30 mg/kg s.c., 201 min): 1.66 g/kg body weight
- % increase over vehicle (Wistar rats [2]; 30 mg/kg s.c., 234.5 min): 11.7%
- Accumulated lipid utilization (Wistar rats [2]; 30 mg/kg s.c., 234.5 min): 1.96 g/kg body weight
- % increase over vehicle (Wistar rats [2]; 30 mg/kg s.c., 268 min): 12.2%
- Accumulated lipid utilization (Wistar rats [2]; 30 mg/kg s.c., 268 min): 2.26 g/kg body weight
- % increase over vehicle (Wistar rats [2]; 30 mg/kg s.c., 301.5 min): 12.5%
- Accumulated lipid utilization (Wistar rats [2]; 30 mg/kg s.c., 301.5 min): 2.55 g/kg body weight
- % increase over vehicle (Wistar rats [2]; 30 mg/kg s.c., 335 min): 12.3%
- Accumulated lipid utilization (Wistar rats [2]; 30 mg/kg s.c., 335 min): 2.86 g/kg body weight
- % increase over vehicle (Wistar rats [2]; 30 mg/kg s.c., 368.5 min): 11.5%
- Accumulated lipid utilization (Wistar rats [2]; 30 mg/kg s.c., 368.5 min): 3.18 g/kg body weight
- Duration of effect on lipid oxidation (Wistar rats [2]; 10 and 30 mg/kg s.c.): at least 6 hours
